Laboratory results from patent publication EP4806891A1 (Kangbaida (Sichuan) Biotechnology Co., Ltd., priority 2023, dated 2025).

molecular target: T1, HEK-Blue-hTLR8 cells (Homo sapiens, UniProt Q9NR97); experiment: HEK-Blue-hTLR8 cell inhibition assay; assay type: cell-based; conditions: R848 3 µM, 16 h, OD 620 nm, read-out: TLR8 IC50
T1 construct: expressed in transfected cells; host or cells: HEK-Blue-hTLR8 cells (HEK293-derived reporter line)
T1 sequence (Q9NR97 27-1041): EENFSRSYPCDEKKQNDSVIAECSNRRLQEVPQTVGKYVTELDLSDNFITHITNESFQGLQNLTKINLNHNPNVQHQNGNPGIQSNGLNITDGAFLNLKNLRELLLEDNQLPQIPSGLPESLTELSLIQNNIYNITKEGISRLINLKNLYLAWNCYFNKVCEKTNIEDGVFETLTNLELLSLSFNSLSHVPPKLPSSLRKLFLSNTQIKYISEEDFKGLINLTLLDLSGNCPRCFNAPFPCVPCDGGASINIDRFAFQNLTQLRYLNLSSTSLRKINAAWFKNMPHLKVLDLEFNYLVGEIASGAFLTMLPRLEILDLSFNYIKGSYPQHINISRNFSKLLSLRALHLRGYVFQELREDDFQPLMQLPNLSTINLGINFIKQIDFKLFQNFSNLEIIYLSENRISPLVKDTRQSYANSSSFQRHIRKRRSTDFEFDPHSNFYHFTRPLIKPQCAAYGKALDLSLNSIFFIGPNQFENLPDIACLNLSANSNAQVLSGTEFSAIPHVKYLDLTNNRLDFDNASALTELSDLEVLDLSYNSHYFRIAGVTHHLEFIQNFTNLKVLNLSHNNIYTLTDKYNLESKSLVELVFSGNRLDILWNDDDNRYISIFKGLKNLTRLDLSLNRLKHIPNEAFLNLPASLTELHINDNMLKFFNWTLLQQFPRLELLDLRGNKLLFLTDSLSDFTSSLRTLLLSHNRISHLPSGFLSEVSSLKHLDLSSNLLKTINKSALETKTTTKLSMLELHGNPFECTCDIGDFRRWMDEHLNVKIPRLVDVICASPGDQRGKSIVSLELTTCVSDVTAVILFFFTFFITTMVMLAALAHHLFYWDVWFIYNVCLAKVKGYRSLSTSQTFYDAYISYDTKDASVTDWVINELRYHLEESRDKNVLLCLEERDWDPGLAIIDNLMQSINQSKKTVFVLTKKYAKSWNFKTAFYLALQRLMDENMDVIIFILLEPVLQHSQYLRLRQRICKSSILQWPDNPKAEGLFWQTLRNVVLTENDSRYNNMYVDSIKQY
Experimental: HEK-Blue-hTLR7/8/9 cell inhibition assay
1. HEK-Blue-hTLR7/8 cells (1 × 10^4 cells/well) and HEK-Blue-hTLR9 cells (1.5 × 10^4 cells/well) were seeded in a 384-well cell culture plate, with a volume of 30 µL per well. The plate was incubated at 37°C in a 5% CO2 incubator for 4 h. 2. The compound was prepared with DMSO and diluted in DMEM medium to 10 concentrations (1:3 dilution), with final concentrations of 10000, 3333.3, 1111.1, 370.4, 123.5, 41.2, 13.7, 4.6, 1.5, and 0.5 nM; R848 was prepared with DMSO and diluted in DMEM medium, with final concentrations of 0.8 µM (HEK-Blue-hTLR7) and 3 µM (HEK-Blue-hTLR8); ODN2006 was prepared with endotoxin-free water and diluted in DMEM medium, with a final concentration of 1 µM. 3. Cells treated with DMSO were used as the blank control group, while cells treated solely with Resiquimod (R848) were used as the positive control group for HEK-Blue-hTLR7/8, and cells treated solely with ODN2006 were used as the positive control group for HEK-Blue-hTLR9. Cells treated with the test compound together with R848 or ODN2006 were used as the test group. Two parallel wells were set for each group and were placed at 37°C in a 5% CO2 incubator for incubation. 4. After being incubated for 4 h, the 384-well plate of HEK-Blue-hTLR7/8 was taken out from the incubator, and R848 alone or both R848 and the diluted compound were separately added into each well. The plate was placed at 37°C in a 5% CO2 incubator for incubation for 16 h; the 384-well plate of HEK-Blue-hTLR9 was taken out from the incubator, and ODN2006 alone or both ODN2006 and the diluted compound were added separately to each well. The plate was incubated at 37°C in a 5% CO2 incubator for 16 h. 5. After being incubated for 16 h, the 384-well plate was removed from the incubator and centrifuged at 1000 rpm for 1 minute. The optical density value of each well at 620 nm was measured using a multifunctional microplate reader. 6. The cell inhibition rate was calculated as (1-(OD620 test group-OD620 blank group)/(OD620 positive group-OD620 blank group))×100%, and the half maximal inhibitory concentration (IC50) was calculated through curve fitting. Table 1: Activity of the compounds of the present disclosure in HEK-Blue-hTLR7/8/9 cellular assays

SMILES | IC50
Cn1c(CN2CCCC2)nnc1[C@]12CN(c3ccc(C#N)c4ncccc34)C[C@@]1(C(F)(F)F)C2 [Compound 44, 5-((1S,5R)-1-(4-methyl-5-(pyrrolidin-1-ylmethyl)-4H-1,2,4-triazol-3-yl)-5-(trifluoromethyl)-3-azabicyclo[3.1.0]hexan-3-yl)quinoline-8-carbonitrile] | > 1000 nM
CN(C)CC#Cc1nnc([C@]23CN(c4ccc(C#N)c5ncccc45)C[C@@]2(C(F)(F)F)C3)o1 [Compound 25, 5-((1S,5R)-1-(5-(3-(dimethylamino)prop-1-yn-1-yl)-1,3,4-oxadiazol-2-yl)-5-(trifluoromethyl)-3-azabicyclo[3.1.0]hexan-3-yl)quinoline-8-carbonitrile] | < 100 nM
CN1CCC(c2nnc([C@]34CN(c5ccc(C#N)c6ncnn56)C[C@@]3(C(F)(F)F)C4)o2)CC1 [Compound 91, 5-((1S,5R)-1-(5-(1-methylpiperidin-4-yl)-1,3,4-oxadiazol-2-yl)-5-(trifluoromethyl)-3-azabicyclo[3.1.0]hexan-3-yl)-[1,2,4]triazolo[1,5-a]pyridine-8-carbonitrile] | < 100 nM
CN1[C@@H]2CC[C@H]1C[C@H](c1nnc([C@]34CN(c5ccc(C(F)(F)F)c6ncccc56)C[C@@]3(C(F)(F)F)C4)o1)C2 [Compound 79, 2-((1R,3S,5S)-8-methyl-8-azabicyclo[3.2.1]octan-3-yl)-5-((1S,5R)-5-(trifluoromethyl)-3-(8-(trifluoromethyl)quinolin-5-yl)-3-azabicyclo[3.1.0]hexan-1-yl)-1,3,4-oxadiazole] | < 100 nM
CN1CCN(c2nnc([C@]34CN(c5ccc(C#N)c6ncccc56)C[C@@]3(C(F)(F)F)C4)o2)CC1 [Compound 1, 5-((1S,5R)-1-(5-(4-methylpiperazin-1-yl)-1,3,4-oxadiazol-2-yl)-5-(trifluoromethyl)-3-azabicyclo[3.1.0]hexan-3-yl)quinoline-8-carbonitrile] | < 100 nM
CN(C)[C@H]1CC[C@H](c2nnc([C@]34CN(c5ccc(C#N)c6ncccc56)C[C@@]3(C(F)(F)F)C4)o2)CC1 [Compound 21, 5-((1S,5R)-1-(5-((1R,4S)-4-(dimethylamino)cyclohexyl)-1,3,4-oxadiazol-2-yl)-5-(trifluoromethyl)-3-azabicyclo[3.1.0]hexan-3-yl)quinoline-8-carbonitrile] | < 100 nM
CN1CCC(n2cnc([C@]34CN(c5ccc(C#N)c6ncccc56)C[C@@]3(C(F)(F)F)C4)n2)CC1 [Compound 23, 5-((1S,5R)-1-(1-(1-methylpiperidin-4-yl)-1H-1,2,4-triazol-3-yl)-5-(trifluoromethyl)-3-azabicyclo[3.1.0]hexan-3-yl)quinoline-8-carbonitrile] | < 100 nM
Cc1cc(N2CC3(c4nnc(C5CCN(C)CC5)o4)C[C@]3(C(F)(F)F)C2)c2cnn(C)c2n1 (stereo partly drawn) [Compound 2, 2-((5R)-3-(1,6-dimethyl-1H-pyrazolo[3,4-b]pyridin-4-yl)-5-(trifluoromethyl)-3-azabicyclo[3.1.0]hexan-1-yl)-5-(1-methylpiperidin-4-yl)-1,3,4-oxadiazole] | > 1000 nM
N#Cc1ccc(N2C[C@]3(c4nnc(C56CCC(NC(=O)[C@@H]7COCCN7)(CC5)CC6)o4)C[C@]3(C(F)(F)F)C2)c2cccnc12 [Compound 54, (S)-N-(4-(5-((1S,5R)-3-(8-cyanoquinolin-5-yl)-5-(trifluoromethyl)-3-azabicyclo[3.1.0]hexan-1-yl)-1,3,4-oxadiazol-2-yl)bicyclo[2.2.2]octan-1-yl)morpholine-3-carboxamide] | < 100 nM
CN1CCC(c2nnc([C@]34CN(c5ccc(C#N)c6ncccc56)C[C@@]3(C(F)(F)F)C4)n2C)CC1 [Compound 5, 5-((1S,5R)-1-(4-methyl-5-(1-methylpiperidin-4-yl)-4H-1,2,4-triazol-3-yl)-5-(trifluoromethyl)-3-azabicyclo[3.1.0]hexan-3-yl)quinoline-8-carbonitrile] | > 1000 nM
N#Cc1ccc(N2C[C@]3(c4nnc(C5CCNCC5F)o4)C[C@]3(C(F)(F)F)C2)c2cccnc12 (stereo partly shown) [Compound 33] | < 100 nM
CN1CC(Cc2nnc([C@]34CN(c5ccc(C#N)n6ncc(F)c56)C[C@@]3(C(F)(F)F)C4)o2)C1 [Compound 30, 3-fluoro-4-((1S,5R)-1-(5-((1-methylazetidin-3-yl)methyl)-1,3,4-oxadiazol-2-yl)-5-(trifluoromethyl)-3-azabicyclo[3.1.0]hexan-3-yl)pyrazolo[1,5-a]pyridine-7-carbonitrile] | < 100 nM
N#Cc1ccc(N2C[C@]3(c4nnc(N)o4)C[C@]3(C(F)(F)F)C2)c2cccnc12 [Compound 7, 5-((1S,5R)-1-(5-amino-1,3,4-oxadiazol-2-yl)-5-(trifluoromethyl)-3-azabicyclo[3.1.0]hexan-3-yl)quinoline-8-carbonitrile] | < 100 nM
N#Cc1ccc(N2C[C@]3(c4nnc(C5CCN(CC(N)=O)CC5)o4)C[C@]3(C(F)(F)F)C2)c2cccnc12 [Compound 17, 2-(4-(5-((1S,5R)-3-(8-cyanoquinolin-5-yl)-5-(trifluoromethyl)-3-azabicyclo[3.1.0]hexan-1-yl)-1,3,4-oxadiazol-2-yl)piperidin-1-yl)acetamide] | < 100 nM
N#Cc1ccc(N2C[C@]3(c4nnc(CN5CCCC5)o4)C[C@]3(C(F)(F)F)C2)c2cccnc12 [Compound 41, 5-((1S,5R)-1-(5-(Pyrrolidin-1-ylmethyl)-1,3,4-oxadiazol-2-yl)-5-(trifluoromethyl)-3-azabicyclo[3.1.0]hexan-3-yl)quinoline-8-carbonitrile] | < 1000 nM
CN1CCC(C)(c2nnc([C@]34CN(c5ccc(C#N)c6ncccc56)C[C@@]3(C(F)(F)F)C4)o2)CC1 [Compound 8, 5-((1S,5R)-1-(5-(1,4-dimethylpiperidin-4-yl)-1,3,4-oxadiazol-2-yl)-5-(trifluoromethyl)-3-azabicyclo[3.1.0]hexan-3-yl)quinoline-8-carbonitrile] | < 100 nM
N#Cc1ccc(N2C[C@]3(c4nnc(CC5CNC5)o4)C[C@]3(C(F)(F)F)C2)c2cccnc12 [Compound 35, 5-((1S,5R)-1-(5-(azetidin-3-ylmethyl)-1,3,4-oxadiazol-2-yl)-5-(trifluoromethyl)-3-azabicyclo[3.1.0]hexan-3-yl)quinoline-8-carbonitrile] | < 1000 nM
N#Cc1ccc(N2C[C@]3(c4nnc(C5=CCNC5)o4)C[C@]3(C(F)(F)F)C2)c2cccnc12 [Compound 22, 5-((1S,5R)-1-(5-(2,5-dihydro-1H-pyrrol-3-yl)-1,3,4-oxadiazol-2-yl)-5-(trifluoromethyl)-3-azabicyclo[3.1.0]hexan-3-yl)quinoline-8-carbonitrile] | < 100 nM
CN1CCC(c2nnc([C@]34CN(c5ccc(C#N)n6ncc(Cl)c56)C[C@@]3(C(F)(F)F)C4)o2)CC1 [Compound 84, 3-chloro-4-((1S,5R)-1-(5-(1-methylpiperidin-4-yl)-1,3,4-oxadiazol-2-yl)-5-(trifluoromethyl)-3-azabicyclo[3.1.0]hexan-3-yl)pyrazolo[1,5-a]pyridine-7-carbonitrile] | < 1000 nM
